The term IC50 denotes the concentration that inhibits the measured activity by half. A low value points to greater potency.

The structures appear in SMILES notation. Where a chain is given by its changes, count along the chain named.

The target of experiment [1] is T1, KGA_F318Y/F322S (Homo sapiens, UniProt O94925, F318Y/F322S).
T1 construct: a KGA cDNA fragment of 1644 bp (residues Leu123-Leu669); His-tag (N); made in house; host or cells: Escherichia coli
T1 sequence (O94925 123-669 F318Y/F322S): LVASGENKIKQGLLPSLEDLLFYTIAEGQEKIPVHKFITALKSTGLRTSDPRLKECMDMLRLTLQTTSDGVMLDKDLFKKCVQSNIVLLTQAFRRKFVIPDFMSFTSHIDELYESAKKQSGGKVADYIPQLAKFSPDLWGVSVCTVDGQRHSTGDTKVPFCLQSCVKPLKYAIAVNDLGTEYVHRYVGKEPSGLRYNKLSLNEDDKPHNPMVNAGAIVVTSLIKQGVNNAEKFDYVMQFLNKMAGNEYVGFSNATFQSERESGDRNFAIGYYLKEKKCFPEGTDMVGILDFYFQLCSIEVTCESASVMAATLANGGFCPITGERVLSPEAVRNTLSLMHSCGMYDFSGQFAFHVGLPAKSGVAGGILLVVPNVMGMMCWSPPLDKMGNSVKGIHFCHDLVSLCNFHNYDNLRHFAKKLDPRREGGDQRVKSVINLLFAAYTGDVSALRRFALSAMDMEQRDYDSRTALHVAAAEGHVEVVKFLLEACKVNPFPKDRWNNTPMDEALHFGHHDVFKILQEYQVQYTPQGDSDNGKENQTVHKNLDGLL
Nature of the experiment: Glutaminase activity assay, KGA mutant F318Y/F322S. In kind it is biochemical. As for the experimental part: Human glutaminase activity was measured using a two-step assay as described previously. A microtiter assay format was used to facilitate the collection of multiple data points. […] Samples were incubated at 25°C for 10 min and then 10 μl of 200 mM glutamine were added to the reaction mix. After adding glutamine, the reactions were incubated at 37°C for 60 min and then quenched by the addition of 10 μl of 0.6 M HCl. Subsequently, 100 μl of a second reaction mixture (3.7 units of purified bovine liver glutamate dehydrogenase, 160 mM Tris/acetate [pH 9.4], 400 mM hydrazine, 5 mM ADP and 2 mM NAD^+) was added to the stopped first reaction mixture and incubated for 30 min at 25°C. The absorbance at 340 nm was measured using a Wallac Victor2V plate reader (PerkinElmer), fitted with a 340 nm excitation filter. Sample absorbance was measured against a blank, containing no human glutaminase.
Site-directed mutagenesis was performed on the pET28a(+)-GAB or pET28a(+)-KGA plasmids using PfuUltra II Fusion HS DNA polymerase (Agilent Technologies) to create the GAB and KGA mutants. The deep view program (Version 3.7) of the Swiss-MODEL server was used to generate the three dimensional structure of homologous modeled GAB. Using the integrated sequence alignment tools and structural superimposition algorithms, the target sequence was mapped on the modeling templates.

Experiment [2] has as its target T2, KGA_H519Q (Homo sapiens, UniProt O94925, H519Q).
T2 construct: a KGA cDNA fragment of 1644 bp (residues Leu123-Leu669); His-tag (N); made in house; host or cells: Escherichia coli
T2 sequence (O94925 123-669 H519Q): T1 sequence (O94925 123-669 F318Y/F322S) with Y196F, S200F, H397Q
Nature of the experiment: Glutaminase activity assay, KGA mutant H519Q. In kind it is biochemical. Here is the method: Human glutaminase activity was measured using a two-step assay as described previously. A microtiter assay format was used to facilitate the collection of multiple data points. Typically, 10 μl of compound, which was dissolved in DMSO, was added to 80 μl of an initial assay mix (0.1 mM hKGA, 0.2 mM EDTA and 50 mM Tris/acetate, pH 8.6). Samples were incubated at 25°C for 10 min and then 10 μl of 200 mM glutamine were added to the reaction mix. After adding glutamine, the reactions were incubated at 37°C for 60 min and then quenched by the addition of 10 μl of 0.6 M HCl. Subsequently, 100 μl of a second reaction mixture (3.7 units of purified bovine liver glutamate dehydrogenase, 160 mM Tris/acetate [pH 9.4], 400 mM hydrazine, 5 mM ADP and 2 mM NAD^+) was added to the stopped first reaction mixture and incubated for 30 min at 25°C. The absorbance at 340 nm was measured using a Wallac Victor2V plate reader (PerkinElmer), fitted with a 340 nm excitation filter. Sample absorbance was measured against a blank, containing no human glutaminase.
Site-directed mutagenesis was performed on the pET28a(+)-GAB or pET28a(+)-KGA plasmids using PfuUltra II Fusion HS DNA polymerase (Agilent Technologies) to create the GAB and KGA mutants. […] The sequence alignment was compared with crystal structure of the GAC (PDB code: 3UO9) and the resulting model of GAB was analyzed using the Swiss-PDB server. […]

For `CCCCCCCCCCCCCC(CC1=CC(=O)C=C(OC)C1=O)OC(C)=O` (centres unmarked) [AV-1], the IC50 in experiment [1] was 2.4 µM; in experiment [2], 1.67 ± 0.12 µM.

The values are drawn from paper PMC4171615, “Discovery of selective inhibitors of Glutaminase-2, which inhibit mTORC1, activate autophagy and inhibit proliferation in cancer cells” (Oncotarget, 2014).
